Read-outs that look alike come from different tables or passages of the source.
How the values were obtained:
[1] = Metabolic stability in mouse liver microsomes; format: in vitro ADME; settings: mouse, liver microsomes, pH 7.4, Table 20; read-out: Half life in Mouse liver microsome
[2] = Metabolic stability in rat liver microsomes; format: in vitro ADME; settings: rat, liver microsomes, pH 7.4; Table 20; read-out: Half life in Rat liver microsome
[3] = Metabolic stability in dog liver microsomes; format: in vitro ADME; settings: dog, dog liver microsomes, pH 7.4; Table 20; read-out: Half life in Dog liver microsome
[4] = Metabolic stability in monkey liver microsomes; format: in vitro ADME; settings: monkey, monkey liver microsomes, pH 7.4; Table 20; read-out: Half life in Monkey liver microsome
in vitro = settings: human, microsomes, pH 7.4
B16-F1 = assay: SRB cytotoxicity assay, B16-F1 mouse melanoma cells; format: cell-based; settings: Mus musculus, B16-F1, 48 h, Table 13, 48 h; read-out: IC50 ± SEM B16-F1 (converted)
A375 = assay: SRB cytotoxicity assay, A375 human melanoma cells; format: cell-based; settings: Homo sapiens, A-375, 48 h, Table 13, 48 h; read-out: IC50 ± SEM A375
WM-164 = assay: SRB cytotoxicity assay, WM-164 human melanoma cells; format: cell-based; settings: Homo sapiens, WM164, 48 h, Table 13, 48 h; read-out: IC50 ± SEM WM164 (converted)
DU 145 = assay: SRB cytotoxicity assay, DU 145 prostate cancer cells; format: cell-based; settings: Homo sapiens
Excerpt: (§1) Cells were stained with SRB solution.

PC-3 = assay: SRB cytotoxicity assay, PC-3 prostate cancer cells; format: cell-based, human; settings: Homo sapiens, PC-3
Excerpt: as §1

LNCaP = assay: SRB cytotoxicity assay, LNCaP prostate cancer cells; format: cell-based, human; settings: Homo sapiens, LNCaP
Excerpt: as §1

PPC-1 = assay: SRB cytotoxicity assay, PPC-1 prostate cancer cells; format: cell-based, human; settings: Homo sapiens, PPC-1
Excerpt: as §1

B16-F1 melanoma tumors = assay: In vivo efficacy, B16-F1 melanoma in C57/BL mice; design: species or system mouse; settings: 13 days, C57BL/6 mice
[5] = system: A375 human melanoma xenograft; assay: In vivo efficacy, A375 human melanoma xenograft in mice; settings: SHO mice
Protocol: DTIC at 60 mg/kg was used as a positive control again.
PC-3 and A375 tumor xenograft studies.
In vivo antitumor activity [tumor growth inhibition (% T/C), tumor growth delay (T-C value), and tumor cell kill (total log cell kill)].

PC-3/TxR = assay: cells; settings: Homo sapiens, PC3-TxR, read-out: inhibitory effects PC3/TXR
DU145/TXR = assay: SRB growth inhibition, paclitaxel-resistant DU145/TXR cells; format: cell-based; settings: Homo sapiens, DU-145; Table 13A; read-out: inhibitory effects DU145/TXR
[6] = Table 13A, read-out: inhibitory effects DU145
[7] = Table 13A, read-out: inhibitory effects PC3
[8] = Table 13A, read-out: inhibitory effects LNCaP
[9] = Table 13A, read-out: inhibitory effects PPC1

With `COc1cc(C(=O)c2csc(-c3ccc(O)cc3)n2)cc(OC)c1OC` [2l, (2-(4-Hydroxyphenyl)thiazol-4-yl)(3,4,5-trimethoxyphenyl)methanone] the half-life at 0.5 μM [1] was 11 min, the half-life at 0.5 μM [2] was 49 min and the half-life at 0.5 μM [3] was 30 min. The half-life at 0.5 μM [4] was 8 min and the half-life at 0.5 μM (in vitro) was 20 min.

With `O=C(c1cccc(F)c1)c1cn(S(=O)(=O)c2ccccc2)c(-c2ccccc2)n1` [11ag, (3-fluorophenyl)(2-phenyl-1-(phenylsulfonyl)-1H-imidazol-4-yl)methanone] the IC50 (B16-F1) was > 10000 nM, the IC50 (A375) was > 10000 nM and the IC50 (WM-164) was > 10000 nM. The IC50 (DU 145; Table 13, 96 h, read-out: IC50 ± SEM Du 145) was > 10000 nM, the IC50 (PC-3; Table 13, 96 h, read-out: IC50 ± SEM PC-3) was > 10000 nM and the IC50 (LNCaP; Table 13, 96 h, read-out: IC50 ± SEM LNCaP) was > 10000 nM. For the same compound, the IC50 (PPC-1; Table 13, 96 h, read-out: IC50 ± SEM PPC-1) was > 10000 nM.

In the case of `COc1cc(C(=O)c2cn(C)c(-c3ccc(C)cc3)n2)cc(OC)c1OC` [12dab, (1-methyl-2-(p-tolyl)-1H-imidazol-4-yl)(3,4,5-trimethoxyphenyl)methanone], the half-life at 0.5 μM [1] is reported as < 5 min, the half-life at 0.5 μM [2] is reported as 12 min and the half-life at 0.5 μM [3] is reported as 46 min. For the same compound, the half-life at 0.5 μM (in vitro) was 21 min.

For `O=C(c1ccc(F)cc1)c1c[nH]c(-c2ccc(Cl)cc2)n1` [12fb, (2-(4-chlorophenyl)-1H-imidazol-4-yl)(4-fluorophenyl)methanone], the “tumor growth inhibition (TGI value)” value (B16-F1 melanoma tumors; 45 mg/kg) was 82%, the tolerability ([5]; 25 mg/kg) was “well tolerated” and the half-life at 0.5 μM (in vitro) was 37 min.

Work on `COc1cc(C(=O)c2nc(-c3ccc(Cl)cc3)c[nH]2)cc(OC)c1OC` [70c, (4-(4-chlorophenyl)-1H-imidazol-2-yl)(3,4,5-trimethoxyphenyl)methanone] yielded an IC50 (DU 145; [6]) of 125 nM, an IC50 (PC-3; [7]) of 64 nM and an IC50 (LNCaP; [8]) of 22 nM. It also gave an IC50 (PPC-1; [9]) of 51 nM and an IC50 (PC-3/TxR) of 25 nM.

`COc1cc(C(=O)c2nc(-c3ccc(C(F)(F)F)cc3)c[nH]2)cc(OC)c1OC` [70e, (4-(4-(trifluoromethyl)phenyl)-1H-imidazol-2-yl)(3,4,5-trimethoxyphenyl)methanone] showed an IC50 (DU 145; [6]) of 210 nM, an IC50 (PC-3; [7]) of 93 nM and an IC50 (LNCaP; [8]) of 47 nM. The IC50 (PPC-1; [9]) was 75 nM, the IC50 (DU145/TXR) was 202 nM and the IC50 (PC-3/TxR) was 46 nM.

Compound `COc1ccc(-c2c[nH]c(C(=O)c3cc(OC)c(OC)c(OC)c3)n2)cc1` [70g, (4-(4-methoxyphenyl)-1H-imidazol-2-yl)(3,4,5-trimethoxyphenyl)methanone] has an IC50 (DU 145; [6]) of 210 nM, an IC50 (PC-3; [7]) of 61 nM and an IC50 (PPC-1; [9]) of 54 nM. The IC50 (DU145/TXR) was 111 nM and the IC50 (PC-3/TxR) was 25 nM.

In the case of `CN(C)/N=N/c1[nH]cnc1C(N)=O` [DTIC, reference compound], the “tumor growth inhibition (TGI value)” value (B16-F1 melanoma tumors; 60 mg/kg) is reported as 51% and the “tumor growth inhibition (TGI value)” value ([5]; 60 mg/kg, 31 days) is reported as 52%.

Source: US12187720B2, “Compounds for treatment of cancer” (ONCTERNAL THERAPEUTICS, INC., priority 2010, dated 2025)
